# Experimental data from patent publication US20250250292A1, “DELIVERY SYSTEM TO TARGET GRAM-NEGATIVE BACTERIA” (priority 2022, published 2025).
# Like-named read-outs stand apart in the source and are kept apart here.
# Columns and labels:
# Format in all cases: cell-based
# Escherichia coli = assay: Antibacterial in vitro activity (MIC)
# Experimental: (§1) These compounds were tested in an E. coli and Klebsiella strain to determine the change in OD600 as a function of concentration (FIG. 5, E. coli; FIG. 6, Klebsiella). The antibacterial activity of the compounds was further analyzed and activity was determine a variety of different bacterial strains.
# Klebsiella pneumoniae = assay: Antibacterial in vitro activity (MIC)
# Experimental: as §1
# Enterobacter cloacae = assay: Antibacterial in vitro activity (MIC)
# Experimental: as §1
# Streptococcus pneumoniae = assay: Antibacterial in vitro activity (MIC)
# Experimental: as §1
# Acinetobacter baumannii = assay: Antibacterial in vitro activity (MIC)
# Experimental: as §1
# Pseudomonas aeruginosa = assay: Antibacterial in vitro activity (MIC)
# Experimental: as §1
# Staphylococcus aureus = assay: Antibacterial in vitro activity (MIC)
# Experimental: as §1
# Proteus mirabilis = assay: Antibacterial in vitro activity (MIC)
# Experimental: as §1
# Haemophilus influenzae = assay: Antibacterial in vitro activity (MIC)
# Experimental: as §1
# Salmonella typhimurium = assay: Antibacterial in vitro activity (MIC); settings: Salmonella enterica, ATCC 13311 / TYPHIMURIUM; isolate D0109, ATCC13311
# Experimental: as §1
# Citrobacter freundii = assay: Antibacterial in vitro activity (MIC)
# Experimental: as §1
# MRC5 fibroblast cells = assay: Cel Titer Glo cytotoxicity in MRC5 cells; settings: Homo sapiens
# Experimental: In order to facilitate development of the TPP containing antibiotics, a series of TPP linkers were prepared and tested for their toxicity in MRC5 cells. This library of linkers are shown below: The toxicity of these linkers in MRC5 cells after a 72 hour incubation.
# [1] = tested on: Escherichia coli (BL21(DE3)); assay: Resazurin blue (alamarBlue) bacterial cell viability assay, gram-negative model
# Experimental: (§2) To compare the efficacy of pleuromutilin and the pleuromulin-TPP^+ ester pro-drug (AP-8-159B) gram-negative and gram-positive pathogen model system were used. Thus, Escherichia coli (BL21(DE3) from New England Biolabs) was used as a model strain for gram-negative bacteria and clinical isolates of Staphylococcus aureus were used as the model system for gram-positive bacteria (NR-49120, NR-46413 obtained from BEI Resources). All strains were cultured at 37° C. overnight in Luria Bertani (LB) (BD 244610). For testing the drug sensitivity, bacteria were grown in RPMI medium containing 10% fetal bovine serum or human serum.
# A resazurin blue assay (alamarBlue®) (Toté et al., 2009; Costa et al., 2021; Wannigama et al., 2019; Travnickova et al., 2019) was used to evaluate bacterial cell viability. Resazurin (7-hydroxy-10-oxidophenoxazin-10-ium-3-one, sodium) is a blue fluorogenic dye used as a redox indicator in cell viability and proliferation assays for bacteria, yeast, or mammalian cells. The resazurin assay protocol is based on the reduction of oxidized non-fluorescent blue resazurin to a red fluorescent dye (resorufin), where NADPH dehydrogenase, without being bound by theory, is probably responsible for the transference of electrons from NADPH+H^+ to resazurin (Costa et al., 2021). The amount of resorufin produced is directly proportional to the number of living cells. This simple fluorometric-based assay rapidly quantifies metabolically active bacterial cells. Two controls were added to the plate to confirm the correct response from the resazurin. The positive control used evaluated media alone without bacterial culture to confirm there was no change from blue to red. The negative control evaluated the bacteria culture alone without added compound to provide a 100% growth control (red). Thus, resazurin sodium salt (Sigma R7017) was added to pleuromutilin or pleuromutilin-TPP+ prodrug treated bacterial samples at a final concentration of 0.02% and incubated for 8 hours at 37° C. Changes in fluorescence were measured on the Biotek Synergy 2 plate reader after an 8-hour incubation at 37° C. using an excitation filter range of 530-570 nm and an emission filter range of 590-620 nm. An increase in fluorescence intensity corresponded to bacterial growth and was quantified by comparison with untreated bacterial control samples. The ratio of (TThreshold (untreated)/TThreshold (prodrug-treated)) (where T=time) was used to quantify the change in bacterial growth. To minimize inter-experimental variations, TThreshold values were corrected by subtracting untreated control cultures to reach minimum detectable fluorescence. At the end of the experiment, wells were visualized for changes in color from blue (inviable bacteria) to red (viable bacteria) and a picture was taken.
# [2] = tested on: clinical isolates of Staphylococcus aureus (NR-49120, NR-46413); assay: Resazurin blue (alamarBlue) bacterial cell viability assay, gram-positive model; settings: clinical strains of Staphylococcus aureus
# Experimental: as §2
# A resazurin blue assay (alamarBlue®) (Toté et al., 2009; Costa et al., 2021; Wannigama et al., 2019; Travnickova et al., 2019) was used to evaluate bacterial cell viability. Resazurin (7-hydroxy-10-oxidophenoxazin-10-ium-3-one, sodium) is a blue fluorogenic dye used as a redox indicator in cell viability and proliferation assays for bacteria, yeast, or mammalian cells. […] This simple fluorometric-based assay rapidly quantifies metabolically active bacterial cells. […] The positive control used evaluated media alone without bacterial culture to confirm there was no change from blue to red. The negative control evaluated the bacteria culture alone without added compound to provide a 100% growth control (red). […] Changes in fluorescence were measured on the Biotek Synergy 2 plate reader after an 8-hour incubation at 37° C. using an excitation filter range of 530-570 nm and an emission filter range of 590-620 nm. An increase in fluorescence intensity corresponded to bacterial growth and was quantified by comparison with untreated bacterial control samples. The ratio of (TThreshold (untreated)/TThreshold (prodrug-treated)) (where T=time) was used to quantify the change in bacterial growth. To minimize inter-experimental variations, TThreshold values were corrected by subtracting untreated control cultures to reach minimum detectable fluorescence. […]
# Enterococcus faecium = assay: Antibacterial in vitro activity (MIC); settings: isolate D0459, Clinical isolate
# Experimental: as §1
# Streptococcus pyogenes = assay: Antibacterial in vitro activity (MIC); settings: isolate B0780, Clinical isolate
# Experimental: as §1
# Streptococcus agalactiae = assay: Antibacterial in vitro activity (MIC); settings: isolate B0790, Clinical isolate
# Experimental: as §1
# [3] = ATCC25922, isolate B0001, ATCC 25922, read-out: MIC
# [4] = isolate B0159, Efflux pump deficient (ΔtolC)
# [5] = isolate B0429, Efflux pump deficient (ΔacrAB)
# [6] = isolate B1098, Clinical isolate, read-out: MIC
# [7] = isolate D0120, Clinical isolate, read-out: MIC
# [8] = ATCC11228, isolate B0032, ATCC 11228
# [9] = ATCC29519, isolate D0033, ATCC 29519
# [10] = ATCC43816, isolate B0305, ATCC 43816
# [11] = isolate D1089, Clinical isolate
# [12] = isolate D1090, Clinical isolate
# [13] = isolate B0078, Clinical isolate
# [14] = isolate B0415, Clinical isolate
# [15] = ATCC15473, isolate B0473, ATCC 15473
# [16] = isolate B1062, Clinical isolate
# [17] = ATCC27853, isolate B0015, ATCC 27853
# [18] = ATCC29511, isolate B0016, ATCC 29511
# [19] = isolate B0367, Clinical isolate
# [20] = ATCC49951, isolate B0009, ATCC 49951
# [21] = isolate B0029, Clinical isolate
# [22] = Proteus mirabilis, isolate D1301, Clinical isolate, read-out: MIC
# [23] = isolate D1300, Clinical isolate
# [24] = ATCC49247, isolate B0035, ATCC 49247
# [25] = isolate B0126, Clinical isolate
# [26] = isolate B0271, Clinical isolate
# [27] = Table 2, cytotoxicity in MRC5 fibroblast cells
# [28] = Table 1, TPP+ linkers, MRC5 cells, 72-hour incubation
compound,measurement,setting,value
C=C[C@]1(C)C[C@@H](OC(=O)CO)[C@]2(C)[C@H](C)CC[C@]3(CCC(=O)[C@H]32)[C@@H](C)[C@@H]1O [Pleuromutilin],MIC,Escherichia coli; [3],128 µg/mL
same,MIC,"Escherichia coli; isolate B0158, AcrAB-TolC efflux pump WT, read-out: MIC",> 128 µg/mL
same,MIC,Escherichia coli; [4],0.5 µg/mL
same,MIC,Escherichia coli; [5],32 µg/mL
same,MIC,Escherichia coli; [6],> 128 µg/mL
same,MIC,Escherichia coli; [7],> 128 µg/mL
same,MIC,Klebsiella pneumoniae; [8],> 128 µg/mL
same,MIC,Klebsiella pneumoniae; [9],> 128 µg/mL
same,MIC,Klebsiella pneumoniae; [10],> 128 µg/mL
same,MIC,Enterobacter cloacae; [11],> 128 µg/mL
same,MIC,Enterobacter cloacae; [12],> 128 µg/mL
same,MIC,Streptococcus pneumoniae; [13],4 µg/mL
same,MIC,Streptococcus pneumoniae; [14],1 µg/mL
same,MIC,Acinetobacter baumannii; [15],> 128 µg/mL
same,MIC,Acinetobacter baumannii; [16],> 128 µg/mL
same,MIC,Pseudomonas aeruginosa; [17],> 128 µg/mL
same,MIC,Pseudomonas aeruginosa; [18],> 128 µg/mL
same,MIC,Pseudomonas aeruginosa; [19],> 128 µg/mL
same,MIC,Staphylococcus aureus; [20],1 µg/mL
same,MIC,Staphylococcus aureus; [21],1 µg/mL
same,MIC,Proteus mirabilis; [22],> 128 µg/mL
same,MIC,Proteus mirabilis; [23],>128 µg/mL
same,MIC,Haemophilus influenzae; [24],4 µg/mL
same,MIC,Haemophilus influenzae; [25],1 µg/mL
same,MIC,Salmonella typhimurium,128 µg/mL
same,MIC,Citrobacter freundii; [26],> 128 µg/mL
same,MIC,"Citrobacter freundii; isolate B0286, AKH Vienna",> 128 µg/mL
same,IC50,MRC5 fibroblast cells; [27],> 90 µM
same,cytotoxicity potency,[1]; E Coli BL21 (DE3),25 µg/mL
same,cytotoxic effect,[1]; E. coli BL21 (DE3),much less cytotoxic
same,cytotoxic effect,[2],potent cytotoxic agents
"CC(C)C[C@H](NC(=O)[C@H](Cc1ccccc1)NC(=O)c1cnccn1)B(O)O [PS-341, bortezomib]",IC50,MRC5 fibroblast cells; [28],0.007 µM
same,IC50,MRC5 fibroblast cells; [27],0.0003 µM
OCCCCCC[P+](c1ccccc1)(c1ccccc1)c1ccccc1 [AP-5-531],IC50,MRC5 fibroblast cells; [28],> 90 µM
O=C(OCCOCCO)c1ccc([P+](c2ccccc2)(c2ccccc2)c2ccccc2)cc1 [AP-8-99-2],IC50,MRC5 fibroblast cells; [28],> 90 µM
O=C(O)CC[P+](c1ccccc1)(c1ccccc1)c1ccccc1 [AP-4-8],IC50,MRC5 fibroblast cells; [28],> 90 µM
C[C@H]1c2cccc(O)c2C(=O)C2=C(O)[C@]3(O)C(=O)C(C(N)=O)=C(O)[C@@H](N(C)C)[C@@H]3[C@@H](O)[C@@H]21 [Doxycycline],MIC,Escherichia coli; [3],0.5 µg/mL
same,MIC,Escherichia coli; [4],0.25 µg/mL
same,MIC,Escherichia coli; [5],0.25 µg/mL
same,MIC,Escherichia coli; [6],16 µg/mL
same,MIC,Escherichia coli; [7],2 µg/mL
same,MIC,Klebsiella pneumoniae; [8],0.25 µg/mL
same,MIC,Klebsiella pneumoniae; [9],1 µg/mL
same,MIC,Klebsiella pneumoniae; [10],1 µg/mL
same,MIC,Enterobacter cloacae; [11],> 32 µg/mL
same,MIC,Enterobacter cloacae; [12],2 µg/mL
same,MIC,Enterococcus faecium,32 µg/mL
same,MIC,Streptococcus pneumoniae; [13],16 µg/mL
same,MIC,Streptococcus pneumoniae; [14],0.12 µg/mL
same,MIC,Acinetobacter baumannii; [15],0.5 µg/mL
same,MIC,Acinetobacter baumannii; [16],≤ 0.03 µg/mL
same,MIC,Pseudomonas aeruginosa; [17],16 µg/mL
same,MIC,Pseudomonas aeruginosa; [18],32 µg/mL
same,MIC,Pseudomonas aeruginosa; [19],> 32 µg/mL
same,MIC,Staphylococcus aureus; [20],0.12 µg/mL
same,MIC,Staphylococcus aureus; [21],8 µg/mL
same,MIC,"Staphylococcus aureus; isolate B1325, Clinical isolates",4 µg/mL
same,MIC,Streptococcus pyogenes,16 µg/mL
same,MIC,Proteus mirabilis; [22],32 µg/mL
same,MIC,Proteus mirabilis; [23],32 µg/mL
same,MIC,Streptococcus agalactiae,0.12 µg/mL
same,MIC,Haemophilus influenzae; [24],0.12 µg/mL
same,MIC,Haemophilus influenzae; [25],0.12 µg/mL
same,MIC,Salmonella typhimurium,0.5 µg/mL
same,MIC,Citrobacter freundii; [26],8 µg/mL
same,MIC,"Citrobacter freundii; isolate B0286, AKH Vienna",2 µg/mL
CC(C)(O)C[P+](c1ccccc1)(c1ccccc1)c1ccccc1 [AP-7-253],IC50,MRC5 fibroblast cells; [28],> 90 µM
Oc1ccc(C[P+](c2ccccc2)(c2ccccc2)c2ccccc2)cc1 [AP-8-109],IC50,MRC5 fibroblast cells; [28],60.6 µM
